Patent US11840686B2, “Modulation of prekallikrein (PKK) expression” (Ionis Pharmaceuticals, Inc., priority 2013, dated 2023)
Strand notation (5' to 3'): a small letter for the sugar, then the base; units joined by * are phosphorothioate-linked, units joined directly phosphodiester-linked; [ ] holds rarer units or linkages, { } end groups; capitals alone tell only the bases. e = 2'-O-(2-methoxyethyl) (MOE); [5mC] = 5-methylcytosine; d = 2'-deoxy (DNA)

Columns and labels:
[1] = test system: human PKK mRNA; assay: Dose-dependent antisense inhibition of human PKK in HepaRG cells, 0.12-10.00 uM (Example 4); format: cell-based; conditions: electroporation, ~16 h
Method: Cells were plated at a density of 20,000 cells per well and transfected using electroporation with 0.12 μM, 0.37 μM, 1.11 μM, 3.33 μM, and 10.00 μM concentrations of antisense oligonucleotide. After a treatment period of approximately 16 hours, RNA was isolated from the cells and PKK mRNA levels were measured by quantitative real-time PCR. Human PKK primer probe set RTS3454 was used to measure mRNA levels. PKK mRNA levels were adjusted according to total RNA content, as measured by RIBOGREEN®. The antisense oligonucleotides were tested in a series of experiments that had similar culture conditions. Results are presented as percent inhibition of PKK, relative to untreated control cells.
The half maximal inhibitory concentration (IC50) of each oligonucleotide is also presented.

[2] = test system: human PKK mRNA; assay: Antisense inhibition of human PKK mRNA in HepaRG cells, 3,000 nM (Example 1); format: cell-based; conditions: relative to untreated control cells
Outline: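 HepaRG cells, 20,000 per well, were electroporated with 3,000 nM 5-10-5 MOE gapmer (phosphorothioate, 5-methylcytosine). After about 24 h, PKK mRNA was measured by qRT-PCR with primer probe set RTS3454 and normalised to RIBOGREEN total RNA. Values are percent inhibition versus untreated cells.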

[3] = Table 1, PKK mRNA, HepaRG cells, 3,000 nM, electroporation, ~24 h
[4] = Table 2, PKK mRNA, HepaRG cells, 3,000 nM, electroporation, ~24 h
[5] = Table 4, HepaRG cells, electroporation with 3,000 nM antisense oligonucleotide, approx. 24 hours, PKK mRNA by RT-PCR (RTS3454)

Substance	percent inhibition of PKK at 0.12 μM ([1]; Table 32, 0.12 μM)	percent inhibition of PKK at 0.37 μM ([1]; Table 32, 0.37 μM)	percent inhibition of PKK at 1.11 μM ([1]; Table 32, 1.11 μM)	percent inhibition of PKK at 3.33 μM ([1]; Table 32, 3.33 μM)	percent inhibition of PKK at 10.00 μM ([1]; Table 32, 10.00 μM)	IC50 ([1]; Table 32, PKK mRNA)	% inhibition [2, 4]	% inhibition [2, 5]	other results
530967 (antisense e[5mC]*eA*eA*e[5mC]*e[5mC]*dA*dA*dT*dT*dT*d[5mC]*dT*dG*dA*dA*eA*eG*eG*eG*e[5mC]) [compound 530967]	30%	36%	48%	82%	91%	700 nM			% inhibition [2, 3]: 69%
486847 (antisense eA*eG*eG*e[5mC]*eA*dT*dA*dT*dT*dG*dG*dT*dT*dT*dT*eT*eG*eG*eA*eA) [compound 486847]	0%	34%	48%	71%	87%	1100 nM	78%		
530970 (antisense eT*eT*eG*eG*eT*dG*dT*dG*d[5mC]*d[5mC]*dA*d[5mC]*dT*dT*dT*e[5mC]*eA*eG*eA*eT) [compound 530970]	1%	0%	66%	76%	84%	1000 nM			% inhibition [2, 3]: 74%
531198 (eG*eG*eG*eA*eT*dT*dT*dT*dG*d[5mC]*dT*dG*dA*dA*dG*e[5mC]*eT*eG*eG*eT; antisense) [compound 531198]								73%	percent inhibition of PKK at 0.12 μM ([1]; Table 33, 0.12 μM): 0%; percent inhibition of PKK at 0.37 μM ([1]; Table 33, 0.37 μM): 35%; percent inhibition of PKK at 1.11 μM ([1]; Table 33, 1.11 μM): 62%; percent inhibition of PKK at 3.33 μM ([1]; Table 33, 3.33 μM): 76%; percent inhibition of PKK at 10.00 μM ([1]; Table 33, 10.00 μM): 60%; IC50 ([1]; Table 33, PKK mRNA): 800 nM
530933 (antisense eT*eG*eG*eA*eG*dG*dT*dG*dA*dG*dT*d[5mC]*dT*d[5mC]*dT*eT*eG*eT*e[5mC]*eA) [compound 530933]	15%	13%	42%	67%	66%	1700 nM			% inhibition [2, 3]: 76%
531164 (antisense eT*eT*eA*eA*eA*dT*dA*dT*dA*dA*dA*dG*dA*dG*dA*eT*e[5mC]*e[5mC]*eT*e[5mC]) [compound 531164]								38%	
531160 (antisense eT*eG*eA*eT*eA*dT*d[5mC]*dA*dT*d[5mC]*dA*dT*d[5mC]*d[5mC]*d[5mC]*eA*eA*eT*eG*eA) [compound 531160]									% inhibition ([2]; Table 3, HepaRG cells, electroporation with 3,000 nM antisense oligonucleotide, approx. 24 hours, PKK mRNA by RT-PCR (RTS3454)): 13%
531051 (antisense eA*eT*e[5mC]*e[5mC]*eG*dT*dT*dG*dG*dG*dT*dT*dA*dT*dT*eT*eT*eA*eT*eA) [compound 531051]							51%		
531176 (antisense eT*eT*eA*eT*eG*dA*dA*dA*d[5mC]*d[5mC]*dT*d[5mC]*dT*dT*dG*eA*eT*eT*eT*eG) [compound 531176]								0%	
531077 (eA*eT*eG*e[5mC]*e[5mC]*dA*d[5mC]*dT*d[5mC]*dT*d[5mC]*d[5mC]*dA*dT*dG*e[5mC]*eT*eT*eT*eG; antisense) [compound 531077]							51%		
531057 (antisense e[5mC]*eA*eT*e[5mC]*eT*dT*dT*dT*d[5mC]*d[5mC]*d[5mC]*d[5mC]*d[5mC]*dT*dT*e[5mC]*eT*eT*eT*eA) [compound 531057]							48%		
531207 (e[5mC]*e[5mC]*eA*e[5mC]*eT*dT*dA*dT*dT*dT*dG*dA*dT*dG*dA*e[5mC]*e[5mC]*eA*e[5mC]*eA; antisense) [compound 531207]								64%	
